Consider 20 compounds from US5166214A, “Use of imidazoles for the treatment of atherosclerosis” (priority 1990, dated 1992).

The structures appear in SMILES notation. pIC50: −log10 of the molar value. Read-outs that look alike come from different tables or passages of the source.

Assay [1] concerns the target T1, Acyl-CoA: Cholesterol Acyltransferase (ACAT) (Rattus norvegicus, UniProt Q7TQM4).
T1 construct: Microsomes were obtained by differential centrifugation; from tissue; host or cells: liver microsomes of male Sprague Dawley rats
T1 sequence (Q7TQM4 1-524): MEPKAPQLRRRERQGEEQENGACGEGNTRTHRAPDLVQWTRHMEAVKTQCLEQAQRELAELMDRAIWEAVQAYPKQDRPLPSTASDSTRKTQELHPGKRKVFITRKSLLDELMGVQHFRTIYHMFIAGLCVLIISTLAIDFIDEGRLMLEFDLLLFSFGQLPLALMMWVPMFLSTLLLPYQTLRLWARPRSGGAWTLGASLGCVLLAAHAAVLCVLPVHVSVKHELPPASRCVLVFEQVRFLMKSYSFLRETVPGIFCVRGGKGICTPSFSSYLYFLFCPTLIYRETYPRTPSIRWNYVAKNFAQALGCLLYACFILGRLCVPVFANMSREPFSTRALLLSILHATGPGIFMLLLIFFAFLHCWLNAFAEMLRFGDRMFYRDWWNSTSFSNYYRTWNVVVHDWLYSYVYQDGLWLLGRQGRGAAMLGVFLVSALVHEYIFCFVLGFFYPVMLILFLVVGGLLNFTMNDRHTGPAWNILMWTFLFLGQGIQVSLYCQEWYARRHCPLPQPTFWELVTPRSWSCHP
As to the kind of experiment: Inhibition of acyl-CoA: cholesterol acyltransferase (ACAT) in hepatic microsomes (in vitro). The format is biochemical, rat (male Sprague Dawley). Here is the method: A. Assay of the Inhibition of Acyl-CoA: Cholesterol Acyltransferase (ACAT) in Hepatic Microsomes
The ability of the compounds to inhibit ACAT, the enzyme responsible for the intracellular synthesis of cholesteryl esters, was tested as follows. Male Sprague Dawley rats weighing 150-300 g, were fed rat chow ad libitum. The animals were fasted for twenty-four hours prior to being sacrificed by decapitation. The livers were perfused in situ with 50 ml of cold 0.25M sucrose, excised, and homogenized in three volumes of 0.1M phosphate buffer, pH 7.4, that contained 0.5 mM EDTA (ethylenediaminetetraacetic acid), 1.0 mM glutathione, 0.25M sucrose and […]. Microsomes were obtained by differential centrifugation; the supernatant from an initial spin at 15,000×g for 15 minutes was centrifuged at 105,000×g for 1 hour to pellet the microsomes. The microsomes were suspended in homogenization buffer, reisolated by centrifugation, and stored at -70° C. Microsomes were used within one month of preparation.
The control assay in a final volume of 200 μl consisted of 200 μg of microsomal protein, 75 μM ^14 C-oleoyl-CoA (10,000 dpm/nmol) in 0.1M phosphate, pH 7.4, that contained 1 mM glutathione. Compounds were added in 5 μl of DMSO (dimethyl sulfoxide) and additional controls were run with DMSO only. All components, except the oleoyl-CoA, were preincubated for 15 min. at 37° C. prior to the initiation of the reaction by the addition of oleoyl-CoA. The assay was terminated after 10 min by the addition of 4 ml of chloroform:methanol (2:1, v/v). 20,000 dpm of ^3 H-cholesteryl oleate and 10 μg of unlabeled cholesteryl oleate and oleic acid were added as an internal standard and carriers, respectively. After allowing 10 min. for lipid extraction, the samples were centrifuged at 1,000×g for 10 min. to separate the solvent layers. The chloroform layer containing the neutral lipids was spotted onto a Baker SI250-Pa silica gel TLC plate and the plate developed using a hexane: diethyl ether: acetic acid (170:30:1 v/v/v) mobile phase. The lipids were visualized by their interaction with iodine vapor and the cholesteryl ester spot was scraped into a scintillation vial and counted.

The subject of assay [2] is murine macrophage-like cell line J774.A1. As to the kind of experiment: Inhibition of cholesterol esterification in mammalian cells (macrophage assay). The format is cell-based. As to conditions: J774.A1 macrophages loaded with ac-LDL, 14C-oleic acid; read-out: Cholesterol Esterification IC50. Here is the method: B. Assay of the Inhibition of Cholesterol Esterification in Mammalian Cells
The esterification of cholesterol was determined in the murine macrophage-like cell line J774.A1. Cells were seeded in 35 mm wells at a density of 300,000 cells per well in 2 mls of Dulbecco's Eagle Medium (DMEM) supplemented with 10% fetal bovine serum (FBS). Cells were incubated at 37° C. in an atmosphere of 5% CO2 and 93% humidity. After 24 hours the media was changed to 0.68 mls 10% FBS-DMEM containing 34 μg of acetylated human low density lipoprotein (ac-LDL) to increase the intracellular concentration of cholesterol and promote esterification. At 41 hours, various inhibitors were added to the cells in DMSO (10 μl/ml maximum). At 43 hours, the cells were pulsed with 0.1 mM ^14 C-oleic acid (10,000 dpm/nmol) complexed with BSA (bovine serum albumin) to follow cholesterol ester formation. The experiment was terminated at 45 hours by washing the monolayers 3 times with 3 ml of Tris-buffered saline at 4° C. The lipids were extracted by incubating the monolayers with 1.5 ml of hexane:isopropanol (3:2, v/v) for 30 min. under gentle agitation. During this period, 10,000 dpm 3H-cholesteryl linoleate and 10 μg of cholesteryl oleate were added as an internal standard and carrier respectively. The organic solvent was removed and the cells were washed with an additional 1.0 ml of hexane: isopropanol which was combined with the original extract. The cells were allowed to dry overnight, digested with 1.5 ml of 0.2N sodium hydroxide for 1 hour and an aliquot of the solubilized protein used for protein determination using the Lowry method. The organic extract was taken to dryness, the residue resuspended in 100 μl of chloroform and the lipids separated on silica gel impregnated glass fiber plates using a hexane:diethylether:acetic acid (170:30:1, v/v/v) solvent system. Individual lipids were visualized with iodine and the cholesteryl ester spot cut out and transferred to scintillation vials to determine the amount of radioactivity. The conversion of oleic acid to cholesteryl ester in the control averaged 0.54 […] and was increased upon the addition of ac-LDL to about 10.69±0.69 […]. […] It should be noted that many of the intermediates had inhibitory activity in the in vitro ACAT assay and in the macrophage assay.

Setting [3] is: rat hepatic microsomes, 75 μM 14C-oleoyl-CoA, pH 7.4, 37° C., read-out: In Vitro ACAT IC50.

As for `CCCCCCCN(CCCCCSc1nc(-c2ccccc2)c(-c2ccccc2)[nH]1)C(=O)Nc1ccccc1` [Example 2, N-[5-(4,5-diphenyl-1H-imidazol-2-ylthio)pentyl]-N-heptyl-N'-phenylurea], the pIC50 in assay [1] (setting [3]) is 8.52; in assay [2] it was 6.10.
For the compound `CCCCN(CCCCCCCCSc1nc(-c2ccccc2)c(-c2ccccc2)[nH]1)C(=O)Nc1ccc(F)cc1F` [Example 4, N-butyl-N'-(2,4-difluorophenyl)-N-[8-(4,5-diphenyl-1H-imidazol-2-ylthio)octyl]urea], the pIC50 is 7.22 in assay [1] (setting [3]) and 5.34 in assay [2].
On to `CCCCCCCN(CCCCCSc1nc(-c2ccccc2)c(-c2ccccc2)[nH]1)C(=O)Nc1ccc(OC)cc1OC` [Example 5, N'-(2,4-dimethoxyphenyl)-N-[5-(4,5-diphenyl-1H-imidazol-2-ylthio)pentyl]-N-heptylurea], for which the pIC50 in assay [1] (setting [3]) was 7.92; in assay [2] it was 5.60.
`CCCCCCCN(CCCCCSc1nc(-c2ccccc2)c(-c2ccccc2)[nH]1)C(=O)NC` [Example 7, N-[5-(4,5-diphenyl-1H-imidazol-2-ylthio)pentyl]-N-heptyl-N'-methylurea]: the values for the pIC50 in assay [1] (setting [3]) and in assay [2] were 7.39 and 5.12, respectively.
On the same counts, the results for `CCCN(CCSc1nc(-c2ccccc2)c(-c2ccccc2)[nH]1)C(=O)Nc1ccc(F)cc1F` [Example 9, N'-(2.4-difluorophenyl)-N[-2-(4,5-diphenyl-1H-imidazol-2-ylthio)ethyl]-N-propylurea] are 6.03 and 4.95.
For `CCCCCCCN(CCCCCSc1nc(-c2ccccc2)c(-c2ccccc2)n1-c1ccccc1)C(=O)Nc1ccc(F)cc1F` [Example 20], in that order: 7.70 and 4.26.
For `CCCCCCCN(CCCCCSc1nc(-c2ccccc2)c(-c2ccccc2)[nH]1)C(=O)Nc1cccc(F)c1` [Example 53, N-[5-(4,5-diphenyl-1H-imidazol-2-ylthio)pentyl]-N'-(3-fluorophenyl)-N-heptylurea], in that order: 7.77 and 6.40.
For the compound `CCCCCCCN(CCCCCSc1nc(-c2ccccc2)c(-c2ccccc2)[nH]1)C(=O)Nc1c(Cl)cccc1Cl` [Example 64, N'-(2,6-dichlorophenyl)-N-[5-(4,5-diphenyl-1H-imidazol-2-ylthio)pentyl]-N-heptylurea], the results for the pIC50 in assay [1] (setting [3]) and in assay [2] were 7.52 and 6.22, respectively.
As to `CCCCCCCN(CCCCCSc1nc(-c2ccccc2)c(-c2ccccc2)[nH]1)C(=O)Nc1ccc(C#N)cc1` [Example 85, N'-(4-cyanophenyl)-N-[5-(4,5-diphenyl-1H-imidazol-2-ylthio)pentyl]-N-heptylurea], the pIC50 in assay [1] (In Vitro ACAT IC50) is 7.22; in assay [2], 5.51.
On to `CCCCCCCCNC(=O)N(CCCCCCC)CCCCCSc1nc(-c2ccccc2)c(-c2ccccc2)[nH]1` [Example 97, N-[5-(4,5-diphenyl-1H-imidazol-2-ylthio)pentyl]-N-heptyl-N'-octylurea], for which the pIC50 is 7.60 in assay [1] (setting [3]) and 6.15 in assay [2].
For `CCCCCCCN(CCCCCSc1nc(-c2ccccn2)c(-c2ccccn2)[nH]1)C(=O)Nc1ccc(F)cc1F` [Example 107, N-[5-[4,5-bis(2-pyridinyl)-1H-imidazol-2-ylthio]pentyl]-N'-(2,4-difluorophenyl)-N-heptylurea], in that order: 6.00 and 5.64.
For `CCCCCCCN(CCCCCSc1nc(-c2cccs2)c(-c2cccs2)[nH]1)C(=O)Nc1ccc(F)cc1F` [Example 110, N-[5-[4,5-bis(2-thienyl)-1H-imidazol-2-ylthio]pentyl]-N'-(2,4-difluorophenyl)-N-heptylurea], in that order: 7.22 and 6.05.
On the same counts, the results for `CCCCCCCN(CCCCCSc1nc(-c2ccc(F)cc2)c(-c2ccc(F)cc2)[nH]1)C(=O)Nc1ccc(F)cc1F` [Example 114, N-[5-[4,5-bis(4-fluorophenyl)-1H-imidazol-2-ylthio]pentyl]-N'-(2,4-difluorophenyl)-N-heptylurea] are 7.40 and 5.46.
Turning to `CCCCCCCN(CCCCCSc1nc(-c2ccc(OC)cc2)c(-c2ccc(OC)cc2)[nH]1)C(=O)Nc1ccc(F)cc1F` [Example 118, N-[5-[4,5-bis(4-methoxyphenyl)-1H-imidazol-2-ylthio]pentyl]-N'-(2,4-difluorophenyl)-N-heptylurea], the values for the pIC50 in assay [1] (setting [3]) and in assay [2] were 6.77 and 7.00, respectively.
For `CCCCCCCN(CCCCCSc1nc(-c2ccc(C)cc2)c(-c2ccc(C)cc2)[nH]1)C(=O)Nc1ccc(F)cc1F` [Example 122, N-[5-[4,5-bis(4-methylphenyl)-1H-imidazol-2-ylthio]pentyl]-N'-(2,4-difluorophenyl)-N-heptylurea], in that order: 7.10 and 6.52.
On the same counts, the results for `CCCCCCCN(CCCCCSc1nc(-c2ccc(Cl)cc2)c(-c2ccc(Cl)cc2)[nH]1)C(=O)Nc1ccc(F)cc1F` [Example 137] are 7.12 and 5.47.
For `CCCCCCCN(CCCCCSc1ncc[nH]1)C(=O)Nc1ccc(F)cc1F` [Example 186], in that order: 5.55 and 5.21.
As for `CCCCCCCN(CCCCCSc1nc(C(C)C)c(C(C)C)[nH]1)C(=O)Nc1ccc(F)cc1F` [Example 188, N-[5-[4,5-bis(1-methylethyl)-1H-imidazol-2-ylthio]pentyl]-N'-(2,4-difluorophenyl)-N-heptylurea], the pIC50 in assay [1] (setting [3]) was 7.70; in assay [2], 6.05.
As for `CCCCN(CCCCCCCCSc1nc(-c2ccccc2)c(-c2ccccc2)[nH]1)C(=O)NC(C)C` [Example 262], the pIC50 in assay [1] (setting [3]) is 6.70.
In turn, `CCCCCCCN(CCCCCSc1nc(-c2ccc(N(C)C)cc2)c(-c2ccc(N(C)C)cc2)[nH]1)C(=O)Oc1ccccc1` [Example 409, Phenyl [5-[4,5-bis(4-(dimethylamino)phenyl)-1H-imidazol-2-ylthio]pentyl]heptylcarbamate] had a pIC50 in assay [1] (In Vitro ACAT IC50, rat hepatic microsomes, 75 μM 14C-oleoyl-CoA, pH 7.4, 37° C.) of 6.92.

One may read the pIC50 as −log10 of the IC50, conventionally taken in molar units.
